Results published in US6843979B2, “4-haloethenylphenyl tropane:serotonin transporter imaging agents” (Emory University, priority 1999, dated 2005).
Several values for one entry are separate records, joined by “and”; a condition that tells them apart may be missing. Equal entries are not always repeated. Where two headings read alike, the source gives them in different places.

Tests used:
[1] = target: T1, DAT (dopamine transporter site) (Homo sapiens, UniProt Q01959); assay: Transporter affinity of N-alkyl ZIENT ligands in transfected cell lines, [125I]TRI-55; format: binding
T1 construct: expressed in transfected cells
T1 sequence (Q01959 whole entry): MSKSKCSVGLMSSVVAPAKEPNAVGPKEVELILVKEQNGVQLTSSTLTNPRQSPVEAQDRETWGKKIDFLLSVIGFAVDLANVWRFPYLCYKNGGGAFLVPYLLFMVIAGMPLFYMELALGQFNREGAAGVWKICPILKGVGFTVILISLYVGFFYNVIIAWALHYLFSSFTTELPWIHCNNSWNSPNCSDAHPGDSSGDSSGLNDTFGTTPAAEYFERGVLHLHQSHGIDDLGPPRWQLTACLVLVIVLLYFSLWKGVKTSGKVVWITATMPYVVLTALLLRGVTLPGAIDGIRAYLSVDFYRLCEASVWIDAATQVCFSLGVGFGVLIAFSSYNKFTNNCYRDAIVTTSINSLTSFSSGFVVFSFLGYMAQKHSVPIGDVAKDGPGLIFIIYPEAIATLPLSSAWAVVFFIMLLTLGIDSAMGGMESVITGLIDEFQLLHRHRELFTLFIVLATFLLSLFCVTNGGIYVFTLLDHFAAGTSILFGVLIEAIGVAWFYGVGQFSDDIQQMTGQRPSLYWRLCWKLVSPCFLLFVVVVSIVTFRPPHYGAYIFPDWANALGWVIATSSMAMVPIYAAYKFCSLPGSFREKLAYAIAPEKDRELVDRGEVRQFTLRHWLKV
From the text: (§1) In order to determine whether any structural modifications of ZIENT, FEINT, and FEBrNT would still yield high selectivity and specificity for SERT similar to the results seen with ZIENT, FEINT, FEBrNT and FEClNT, various substitutions on the tropane nitrogen and the 2-beta carboxyester position were made and tested in in vitro binding studies.
(§2) These studies provide a variety of new compounds which can be used as imaging agents for visualizing the location and density of serotonin transporter by PET or SPECT imaging.

[2] = target: T2, 5-HTT (serotonin transporter site) (Homo sapiens, UniProt P31645); assay: Transporter affinity of N-alkyl ZIENT ligands in transfected cell lines, [3H]citalopram; format: binding
T2 construct: expressed in transfected cells
T2 sequence (P31645 whole entry): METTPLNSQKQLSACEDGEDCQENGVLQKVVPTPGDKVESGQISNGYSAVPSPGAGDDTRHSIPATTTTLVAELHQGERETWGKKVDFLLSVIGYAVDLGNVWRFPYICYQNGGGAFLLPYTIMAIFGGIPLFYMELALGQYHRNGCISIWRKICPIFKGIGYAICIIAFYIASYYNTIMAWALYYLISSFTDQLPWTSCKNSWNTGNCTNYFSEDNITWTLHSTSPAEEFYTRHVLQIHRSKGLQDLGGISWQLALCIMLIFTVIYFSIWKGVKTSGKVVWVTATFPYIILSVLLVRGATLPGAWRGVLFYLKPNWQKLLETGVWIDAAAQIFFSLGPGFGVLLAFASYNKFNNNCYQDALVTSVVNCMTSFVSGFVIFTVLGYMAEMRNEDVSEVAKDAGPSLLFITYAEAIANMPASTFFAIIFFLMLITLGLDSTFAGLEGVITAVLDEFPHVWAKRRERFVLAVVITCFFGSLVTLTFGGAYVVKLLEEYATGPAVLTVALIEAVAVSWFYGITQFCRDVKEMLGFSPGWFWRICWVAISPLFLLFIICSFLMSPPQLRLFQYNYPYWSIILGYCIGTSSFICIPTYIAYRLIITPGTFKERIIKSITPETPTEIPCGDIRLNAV
From the text: as §1, §2

[3] = target: T3, NET (norepinephrine transporter site) (Homo sapiens, UniProt P23975); assay: Transporter affinity of N-alkyl ZIENT ligands in transfected cell lines, [3H]nisoxetine; format: binding
T3 construct: expressed in transfected cells
T3 sequence (P23975 whole entry): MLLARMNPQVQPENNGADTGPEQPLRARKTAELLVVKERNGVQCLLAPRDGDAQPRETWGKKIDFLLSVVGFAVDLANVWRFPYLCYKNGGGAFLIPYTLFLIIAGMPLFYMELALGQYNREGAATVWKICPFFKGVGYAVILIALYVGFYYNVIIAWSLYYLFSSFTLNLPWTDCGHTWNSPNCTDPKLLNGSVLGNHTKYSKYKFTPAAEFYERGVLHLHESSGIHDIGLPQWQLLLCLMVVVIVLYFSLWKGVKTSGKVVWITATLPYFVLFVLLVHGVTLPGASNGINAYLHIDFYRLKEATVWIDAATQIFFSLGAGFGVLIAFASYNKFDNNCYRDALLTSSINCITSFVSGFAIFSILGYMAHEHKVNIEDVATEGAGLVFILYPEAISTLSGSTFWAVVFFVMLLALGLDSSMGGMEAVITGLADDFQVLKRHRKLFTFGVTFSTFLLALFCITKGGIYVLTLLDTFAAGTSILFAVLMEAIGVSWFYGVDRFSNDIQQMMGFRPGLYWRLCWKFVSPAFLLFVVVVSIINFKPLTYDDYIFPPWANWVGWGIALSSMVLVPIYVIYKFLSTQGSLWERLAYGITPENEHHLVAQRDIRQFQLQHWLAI
From the text: as §1, §2

human NET = target: T4, human NET (Homo sapiens, UniProt P23975); assay: Binding site competition, cells stably transfected with human NET, [3H]nisoxetine; settings: transfected cell lines
T4 construct: expressed in transfected cells
T4 sequence (P23975 whole entry): as above

human DAT = target: T5, human DAT (Homo sapiens, UniProt Q01959); assay: Binding site competition, cells stably transfected with human DAT, [3H]WIN 35,428; settings: [3H]WIN 35428, transfected cell lines
T5 construct: expressed in transfected cells
T5 sequence (Q01959 whole entry): as the sequence (Q01959 whole entry) above

human SERT = target: T6, human SERT (Homo sapiens, UniProt P31645); assay: Binding site competition, cells stably transfected with human SERT, [3H]citalopram; settings: for Ki / SERT Ki: [3H]citalopram, transfected cell lines; for DAT/SERT selectivity / NET/SERT selectivity: ratio of Ki
T6 construct: expressed in transfected cells
T6 sequence (P31645 whole entry): as the sequence (P31645 whole entry) above

SERT [4] = target: T7, SERT (Rattus norvegicus, UniProt P31652); assay: Ex vivo autoradiographic study in rats; set-up: species or system Sprague Dawley rat
T7 construct: from tissue; host or cells: brain and other tissues of living male Sprague Dawley rats
T7 sequence (P31652 whole entry): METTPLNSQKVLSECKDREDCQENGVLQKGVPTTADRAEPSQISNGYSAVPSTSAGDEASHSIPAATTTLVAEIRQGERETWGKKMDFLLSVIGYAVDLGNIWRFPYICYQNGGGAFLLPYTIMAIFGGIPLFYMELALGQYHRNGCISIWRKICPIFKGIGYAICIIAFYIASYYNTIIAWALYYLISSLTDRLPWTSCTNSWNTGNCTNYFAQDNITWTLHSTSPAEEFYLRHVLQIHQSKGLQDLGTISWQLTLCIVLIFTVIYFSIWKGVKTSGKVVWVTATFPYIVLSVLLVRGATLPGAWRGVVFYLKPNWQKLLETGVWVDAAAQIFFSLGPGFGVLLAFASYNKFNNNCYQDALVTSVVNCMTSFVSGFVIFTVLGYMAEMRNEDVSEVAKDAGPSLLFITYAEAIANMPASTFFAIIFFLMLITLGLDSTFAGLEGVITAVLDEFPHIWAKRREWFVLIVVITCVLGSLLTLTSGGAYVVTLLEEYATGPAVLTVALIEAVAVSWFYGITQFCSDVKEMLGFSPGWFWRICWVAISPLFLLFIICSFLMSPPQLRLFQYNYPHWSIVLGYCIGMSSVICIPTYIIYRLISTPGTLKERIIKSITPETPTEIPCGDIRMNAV
Protocol: An initial ex vivo autoradiographic study was performed with either [^18F]FEINT or [^18F]FEBrNT in rats to measure brain penetration and regional distribution. A male Sprague Dawley rat was injected with one mCi of no-carrier added either […].

SERT sites = assay: In vitro autoradiography, coronal brain slices; format: binding, pig tailed macaque
Protocol: [^18F]FEINT and [^18F]FEBrNT were incubated with pig tailed macaque coronal brain slices and the slices exposed to film for 30 min. […] Incubation of the brain slices with [^18F]FEINT (FIG. 1) and [^18F]FEBrNT and 10 μM citalopram yielded maximal inhibition (90%) of binding.
The radiosynthesis for [^18F] 10a, [^18F]12a, and [^18F]12b employed the tosylates 9a and 13a,b as the substrates respectively. The tosylate 9a was treated with NCA K[^18F]/K222 for 10 min in 1 mL of CH3CN at 85° C. followed by TFA/CH2Cl2 at 27° C. […] [^18F]FEBrNT and [^18F]FEClNT were synthesized from the tosylates 13a and 13b in a similar manner. [^18F]FEINT and [18F]FEBrNT were incubated with pig tailed macaque coronal brain slices.

SERT [5] = target: T7, SERT; assay: Tissue uptake of [18F]FEINT in rats; format: in vivo, Sprague Dawley rat; settings: for Clearance from the hypothalamus: rat
Protocol: The in vivo regional brain tissue distribution of [^18F]FEBrNT (Table 2) and [^18F]FEINT Tables 3 and 4) were compared with a preliminary study in rats. […] The hypothalamus to cerebellum ratios for [^18F]FEBrNT were 5.7 at 60 min post injection in comparison to 4.8 for [^18F]FEINT. […] The regional distribution of [^18F]FEBrNT and [^18F]FEINT were next studied in the brain of rhesus monkeys.

SERT [6] = target: T8, SERT (Macaca mulatta, UniProt Q9MYX0); assay: PET imaging and fluvoxamine displacement in rhesus monkey; format: in vivo; settings: anesthetized rhesus monkey; thalamus, hypothalamus, pons / midbrain, brain stem
T8 construct: from tissue; host or cells: brain of a living rhesus monkey
T8 sequence (Q9MYX0 whole entry): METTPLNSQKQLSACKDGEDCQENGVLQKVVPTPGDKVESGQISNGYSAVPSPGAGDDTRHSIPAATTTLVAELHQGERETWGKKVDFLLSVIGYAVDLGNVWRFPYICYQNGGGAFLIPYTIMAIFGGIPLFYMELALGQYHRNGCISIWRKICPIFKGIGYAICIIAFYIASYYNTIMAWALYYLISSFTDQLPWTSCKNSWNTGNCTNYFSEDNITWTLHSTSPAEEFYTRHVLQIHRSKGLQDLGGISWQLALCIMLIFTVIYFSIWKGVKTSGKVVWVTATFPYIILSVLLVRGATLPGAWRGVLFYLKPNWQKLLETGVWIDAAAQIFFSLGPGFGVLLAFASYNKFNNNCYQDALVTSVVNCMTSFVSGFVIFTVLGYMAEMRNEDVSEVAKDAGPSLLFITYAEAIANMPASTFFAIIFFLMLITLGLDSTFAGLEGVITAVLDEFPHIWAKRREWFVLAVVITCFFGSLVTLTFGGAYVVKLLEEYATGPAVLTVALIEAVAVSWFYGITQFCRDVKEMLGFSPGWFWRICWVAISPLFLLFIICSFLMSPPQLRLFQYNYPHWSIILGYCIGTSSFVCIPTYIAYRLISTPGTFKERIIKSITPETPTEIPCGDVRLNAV
Protocol: FIG. 3 is a graph showing time activity curves of [^18F]FEBrNT in a rhesus monkey in the thalamus (∘), hypothalamus (Δ), pons (⋄) and cerebellum (x) at 0-120 min i.v. post injection.

SERT [7] = settings: cited from earlier work
[8] = Table 3, rat, 60 min after i.v., Fluvoxamine
[9] = Table 3, rat, 60 min after i.v., No block
[10] = Table 4, rat, 30 min after i.v.
[11] = Table 4, rat, 60 min after i.v.
[12] = Table 4, rat, 120 min after i.v.

COC(=O)C1C(c2ccc(C=CI)cc2)CC2CCC1N2C (centres unmarked) [N-methyl ZIENT]
Ki [1]: 33 nM
Ki [2]: 0.48 nM
Ki [3]: 69 nM

COC(=O)C1C2CCC(CC1c1ccc(CCF)c(Br)c1)N2 (stereo not drawn) [FEBrNT, 2β-carbomethoxy-3β-(4-(2-fluoroethyl)-3-bromophenyl)nortropane]
Ki (human NET; NET Ki): 126 nM
Ki (human DAT): 23.2 nM and 23 nM
Ki (human SERT): 0.22 nM and 0.12 to 0.56 nM
SERT Ki (human SERT): subnanomolar
DAT/SERT selectivity (human SERT): 100
NET/SERT selectivity (human SERT): 573

COC(=O)C1C(c2ccc(C=CI)cc2)CC2CCC1N2CCF (centres unmarked) [N-fluoroethyl ZIENT]
Ki [1]: 27 nM
Ki [2]: 1.28 nM
Ki [3]: 21 nM

COC(=O)C1C2CCC(CC1c1ccc(CC[18F])c(I)c1)N2 (centres unmarked) [[^18F]FEINT]
Localization of tracer binding, ex vivo autoradiography (SERT [4]; 1 mCi tracer): localized to the thalamus, hypothalamus, caudate, putamen and amygloid complex
Effect of fluvoxamine block on tracer binding (SERT [4]; fluvoxamine 5 mg/kg 20 min prior to tracer): maximal inhibition of binding
Localization of tracer binding in brain slices (SERT sites; slices exposed to film 30 min): localized to the thalamus, hypothalamus, caudate, amygloid complex, putamen and temporal cortex
Inhibition of tracer binding to brain slices (SERT sites; with 10 μM citalopram): 90%
Hypothal/(CB) ratio (SERT [5]; [8]): 3.8
Striatum/(CB) ratio (SERT [5]; [8]): 2.0
Tissue uptake, Blood (SERT [5]; [8]): 0.07 (0.06-0.08) % dose/g
Tissue uptake, Cerebellum (SERT [5]; [8]): 0.1 (0.09-0.12) % dose/g
Tissue uptake, Cortex (SERT [5]; [8]): 0.15 (0.15-0.73) % dose/g
Tissue uptake, Hypothalamus (SERT [5]; [8]): 0.38 (0.28-0.45) % dose/g
Tissue uptake, Olf. T. (SERT [5]; [8]): 0.04 (0.19-0.55) % dose/g
Tissue uptake, Prefrontal Cortex (SERT [5]; [8]): 0.18 (0.06-0.41) % dose/g
Tissue uptake, Striatum (SERT [5]; [8]): 0.2 (0.16-1.40) % dose/g
Hypothal/(CB) ratio (SERT [5]; [9]): 4.8 and 4.6
Striatum/(CB) ratio (SERT [5]; [9]): 2.3
Tissue uptake, Blood (SERT [5]; [9]): 0.09 (0.09-0.99) % dose/g
Tissue uptake, Cerebellum (SERT [5]; [9]): 0.11 (0.11-0.12) % dose/g
Tissue uptake, Cortex (SERT [5]; [9]): 0.18 (0.15-0.19) % dose/g
Tissue uptake, Hypothalamus (SERT [5]; [9]): 0.5 (0.32-0.77) % dose/g
Tissue uptake, Olf. T. (SERT [5]; [9]): 1.46 (1.24-1.65) % dose/g
Tissue uptake, Prefrontal Cortex (SERT [5]; [9]): 0.25 (0.21-0.29) % dose/g
Tissue uptake, Striatum (SERT [5]; [9]): 0.25 (0.21-0.29) % dose/g
Hypothal/(CB) ratio (SERT [5]; Table 4, rat, 5 min after i.v.): 1.67
Striatum/(CB) ratio (SERT [5]; Table 4, rat, 5 min after i.v.): 1.45
Tissue uptake, Blood (SERT [5]; Table 4, rat, 5 min after i.v.): 0.19 (0.15-0.23)
Tissue uptake, Bone (SERT [5]; Table 4, rat, 5 min after i.v.): 0.27 (0.23-0.31)
Tissue uptake, Brain (SERT [5]; Table 4, rat, 5 min after i.v.): 0.65 (0.56-0.75)
Tissue uptake, Cerebellum (SERT [5]; Table 4, rat, 5 min after i.v.): 0.58 (0.51-0.65)
Tissue uptake, Cortex (SERT [5]; Table 4, rat, 5 min after i.v.): 0.76 (0.64-0.96)
Tissue uptake, Hypothalamus (SERT [5]; Table 4, rat, 5 min after i.v.): 0.97 (0.58-1.59)
Tissue uptake, Pre-frontal Cortex (SERT [5]; Table 4, rat, 5 min after i.v.): 0.75 (0.54-0.87)
Tissue uptake, Striatum (SERT [5]; Table 4, rat, 5 min after i.v.): 0.84 (0.59-1.20)
Hypothal/(CB) ratio (SERT [5]; [10]): 2.87
Striatum/(CB) ratio (SERT [5]; [10]): 1.70
Tissue uptake, Blood (SERT [5]; [10]): 0.14 (0.13-0.15)
Tissue uptake, Bone (SERT [5]; [10]): 0.70 (0.36-0.92)
Tissue uptake, Brain (SERT [5]; [10]): 0.35 (0.32-0.40)
Tissue uptake, Cerebellum (SERT [5]; [10]): 0.23 (0.22-0.23)
Tissue uptake, Cortex (SERT [5]; [10]): 0.36 (0.34-0.40)
Tissue uptake, Hypothalamus (SERT [5]; [10]): 0.66 (0.51-0.89)
Tissue uptake, Pre-frontal Cortex (SERT [5]; [10]): 0.37 (0.33-0.42)
Tissue uptake, Striatum (SERT [5]; [10]): 0.39 (0.29-0.55)
Hypothal/(CB) ratio (SERT [5]; [11]): 2.67
Striatum/(CB) ratio (SERT [5]; [11]): 2.44
Tissue uptake, Blood (SERT [5]; [11]): 0.10 (0.08-0.11)
Tissue uptake, Bone (SERT [5]; [11]): 0.95 (0.53-1.17)
Tissue uptake, Brain (SERT [5]; [11]): 0.14 (0.12-0.18)
Tissue uptake, Cerebellum (SERT [5]; [11]): 0.09 (0.07-0.11)
Tissue uptake, Cortex (SERT [5]; [11]): 0.13 (0.10-0.17)
Tissue uptake, Hypothalamus (SERT [5]; [11]): 0.24 (0.18-0.30)
Tissue uptake, Pre-frontal Cortex (SERT [5]; [11]): 0.14 (0.11-0.19)
Tissue uptake, Striatum (SERT [5]; [11]): 0.22 (0.17-0.31)
Hypothal/(CB) ratio (SERT [5]; [12]): 2.8 and 2.83
Striatum/(CB) ratio (SERT [5]; [12]): 1.7 and 1.67
Tissue uptake, Blood (SERT [5]; [12]): 0.63 (0.58-0.68)
Tissue uptake, Bone (SERT [5]; [12]): 1.26 (0.94-1.67)
Tissue uptake, Brain (SERT [5]; [12]): 0.89 (0.08-0.11)
Tissue uptake, Cerebellum (SERT [5]; [12]): 0.06 (0.05-0.08)
Tissue uptake, Cortex (SERT [5]; [12]): 0.09 (0.08-0.11)
Tissue uptake, Hypothalamus (SERT [5]; [12]): 0.17 (0.26-0.17)
Tissue uptake, Pre-frontal Cortex (SERT [5]; [12]): 0.10 (0.09-0.11)
Tissue uptake, Striatum (SERT [5]; [12]): 0.10 (0.09-0.13)
Clearance from the hypothalamus (SERT [5]; at 60 min compared to 5 min post injection): 75%
Clearance from the hypothalamus (SERT [5]; at 120 min compared to 5 min post injection): 85%
Regional brain uptake by PET (SERT [6]): no visible uptake

COC(=O)C1C2CCC(CC1c1ccc(C=CI)cc1)N2 (centres unmarked) [ZIENT]
Ki (human NET; NET Ki): 24 nM
Ki [1]: 16 nM
Ki (human DAT): 3.47 nM
Ki [2]: 0.25 nM
Ki (human SERT): 0.031 nM and 0.03 to 0.1 nM and 0.05 nM
SERT Ki (human SERT): subnanomolar
DAT/SERT selectivity (human SERT): 100 and 116
NET/SERT selectivity (human SERT): 484
Ki [3]: 64 nM

COC(=O)C1C2CCC(CC1c1ccc(CCCF)c(I)c1)N2 (centres unmarked) [FPINT]
SERT Ki (human SERT): subnanomolar

COC(=O)[C@@H]1C2CCC(C[C@@H]1c1ccc(/C=C/I)cc1)N2 (some centres unmarked) [EINT]
Ki (human NET; read-out: NET Ki): 32 nM
Ki (human DAT): 1.88 nM
Ki (human SERT): 1.15 nM
Selectivity for the SERT over the DAT (SERT [7]): 500 times
IC50 (SERT [7]; vs [3H]WIN 35428 (so in the source)): 0.69 nM
